From US10851073B2, “Protein tyrosine phosphatase inhibitors and methods of use thereof” (Calico Life Sciences LLC, priority 2019, dated 2020)

Assays:
[1] = target: T1, His tagged PTPN2 (TC45) protein (Homo sapiens, UniProt P17706); assay: Mobility shift assay used to determine potency of PTPN2 inhibitors; assay type: biochemical; conditions: enzyme 0.5 nM, substrate 2 μM; read-out: PTPN2 MSA IC50
T1 construct: made in house
T1 sequence (P17706 with tags, fused parts or gaps isoform P17706-2): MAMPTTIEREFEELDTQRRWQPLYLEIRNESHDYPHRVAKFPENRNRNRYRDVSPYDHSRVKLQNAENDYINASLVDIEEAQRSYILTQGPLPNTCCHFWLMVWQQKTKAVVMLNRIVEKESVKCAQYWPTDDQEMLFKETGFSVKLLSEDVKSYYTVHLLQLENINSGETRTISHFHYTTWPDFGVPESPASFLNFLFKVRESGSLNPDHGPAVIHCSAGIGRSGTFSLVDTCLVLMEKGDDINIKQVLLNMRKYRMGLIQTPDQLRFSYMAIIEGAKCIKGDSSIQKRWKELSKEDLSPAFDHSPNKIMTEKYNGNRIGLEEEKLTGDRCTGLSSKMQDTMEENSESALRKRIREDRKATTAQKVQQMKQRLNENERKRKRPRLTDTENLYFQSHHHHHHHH
Protocol: Example 227: Mobility Shift Assay Used to Determine Potency of PTPN2 Inhibitors
Compound activity was determined using in house His tagged PTPN2 (TC45) protein (SEQ ID NO: 1) in an in vitro enzymatic reaction. The enzymatic assay used to determine activity was a mobility shift assay using a LabChip EZ Reader by Caliper Life Sciences. The enzymatic reaction was carried out in assay buffer (50 mM HEPES pH 7.5, 1 mM EGTA, 10 mM EDTA, 0.01% Tween® 20, and 2 mM DTT). The compounds were dispensed on a white 384 well ProxiPlate™ (PerkinElmer Catalog #6008289) plate using the Labcyte Echo at varying concentrations (12 point, 1:3 dilution). The enzyme (at 0.5 nM) was incubated with compound for 10 minutes at room temperature. Then the substrate (phosphorylated insulin receptor probe sequence: ((OG488)-(NH—CH2—CH2—O—CH2—CH2—O—CH2—CO)-T-R-D-I-(PY)-E-T-D-Y-Y-R-K-K-NH2) (SEQ ID NO: 2) was added at 2 μM to the plates and incubated for another 10 minutes at room temperature. Finally, a quench solution (water and 4-bromo-3-(2-oxo-2-propoxyethoxy)-5-(3-{[1-(phenylmethanesulfonyl)piperidin-4-yl]amino}phenyl)thiophene-2-carboxylic acid) was added to the plates, which were then run on the EZ Reader (excitation 488 nm, emission 530 nm) to measure % conversion (the amount of phosphorylated substrate which was de-phosphorylated by PTPN2). […] The % inhibition was then used to calculate the IC50 values.

[2] = target: T2, His tagged full-length PTPN1 protein (Homo sapiens, UniProt P18031); assay: Mobility shift assay (MSA) used to determine potency of PTPN1 inhibitors; assay type: biochemical; conditions: enzyme 0.5 nM, substrate 2 μM
T2 construct: made in house
T2 sequence (P18031 with tags, fused parts or gaps): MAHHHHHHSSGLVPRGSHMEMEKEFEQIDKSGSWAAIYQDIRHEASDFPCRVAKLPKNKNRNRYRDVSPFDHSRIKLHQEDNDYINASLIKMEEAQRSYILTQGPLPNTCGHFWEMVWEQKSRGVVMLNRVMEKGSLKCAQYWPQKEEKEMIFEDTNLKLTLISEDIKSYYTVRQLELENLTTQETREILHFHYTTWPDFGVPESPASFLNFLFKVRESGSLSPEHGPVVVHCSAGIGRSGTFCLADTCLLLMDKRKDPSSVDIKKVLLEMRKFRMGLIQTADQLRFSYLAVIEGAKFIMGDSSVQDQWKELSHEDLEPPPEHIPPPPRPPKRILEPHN
Protocol: Example 228: Mobility Shift Assay (MSA) Used to Determine Potency of PTPN1 Inhibitors
Compound activity was determined using in house His tagged full-length PTPN1 protein (SEQ ID NO: 3) in an in vitro enzymatic reaction. The enzymatic assay used to determine activity is a mobility shift assay using a LabChip EZ Reader by Caliper Life Sciences. The enzymatic reaction was carried out in assay buffer (50 mM HEPES pH 7.5, 1 mM EGTA, 10 mM EDTA, 0.01% Tween® 20, and 2 mM DTT). The compounds were dispensed on a white 384 well ProxiPlate™ (PerkinElmer Cat^# 6008289) plate using a Labcyte Echo® liquid handler at varying concentrations (12 point, 1:3 dilution). The enzyme (at 0.5 nM) was incubated with compound for 10 minutes at room temperature. Then the substrate (phosphorylated insulin receptor probe sequence: ((OG488)-(NH—CH2—CH2—O—CH2—CH2—O—CH2—CO)-T-R-D-I-(PY)-E-T-D-Y-Y-R-K-K-NH2) (SEQ ID NO: 2) was added at 2 μM to the plates and incubated for another 10 minutes at room temperature. Finally, a quench solution (water and 4-bromo-3-(2-oxo-2-propoxyethoxy)-5-(3-{[1-(phenylmethanesulfonyl)piperidin-4-yl]amino}phenyl)thiophene-2-carboxylic acid) was added to the plates, which were then run on the EZ Reader (excitation 488 nm, emission 530 nm) to measure % conversion (the amount of phosphorylated substrate which was de-phosphorylated by PTPN1). […] The % inhibition was then used to calculate the IC50 values.

| Structure (SMILES) | IC50 [1] [nM] | IC50 [2] [nM] |
| --- | --- | --- |
| CC(C)OCCNC1CCc2cc(O)c(N3CC(=O)NS3(=O)=O)c(F)c2C1 (stereo not shown) [Compound 186, 5-[1-fluoro-3-hydroxy-7-({2-[(propan-2-yl)oxy]ethyl}amino)-5,6,7,8-tetrahydronaphthalen-2-yl]-1λ^6,2,5-thiadiazolidine-1,1,3-trione] | 10 to 100 | 10 to 100 |
| CC(C)CC(=N)NC1CCc2cc(O)c(N3CC(=O)NS3(=O)=O)c(F)c2C1 (stereo not shown) [Compound 195, N-[8-fluoro-6-hydroxy-7-(1,1,4-trioxo-1λ^6,2,5-thiadiazolidin-2-yl)-1,2,3,4-tetrahydronaphthalen-2-yl]-3-methylbutanimidamide] | 10 to 100 | 10 to 100 |
| O=C1CN(c2c(O)cc3c(c2F)CN(CC(O)C2CCCCC2)CC3)S(=O)(=O)N1 (stereo not shown) [Compound 215, 5-[2-(2-cyclohexyl-2-hydroxyethyl)-8-fluoro-6-hydroxy-1,2,3,4-tetrahydroisoquinolin-7-yl]-1λ^6,2,5-thiadiazolidine-1,1,3-trione] | > 100 | > 100 |
| O=C1CN(c2c(O)cc3c(c2F)CN(CC2CC4CCC2O4)CC3)S(=O)(=O)N1 (stereo not shown) [Compound 222, 5-{8-fluoro-6-hydroxy-2-[(7-oxabicyclo[2.2.1]heptan-2-yl)methyl]-1,2,3,4-tetrahydroisoquinolin-7-yl}-1λ^6,2,5-thiadiazolidine-1,1,3-trione] | 10 to 100 | 10 to 100 |
| O=C1CN(c2c(O)cc3c(c2F)CN(CCC24CCC(CC2)C4)CC3)S(=O)(=O)N1 [Compound 239, 5-{2-[2-(bicyclo[2.2.1]heptan-1-yl)ethyl]-8-fluoro-6-hydroxy-1,2,3,4-tetrahydroisoquinolin-7-yl}-1λ^6,2,5-thiadiazolidine-1,1,3-trione] | 1 to 10 | 1 to 10 |
| C=CCC1(N)CCc2cc(O)c(N3CC(=O)NS3(=O)=O)c(F)c2C1 (stereo not shown) [Compound 240, 5-[7-amino-1-fluoro-3-hydroxy-7-(prop-2-en-1-yl)-5,6,7,8-tetrahydronaphthalen-2-yl]-1λ^6,2,5-thiadiazolidine-1,1,3-trione] | 10 to 100 | > 100 |
| CC(O)CCN1CCc2cc(O)c(N3CC(=O)NS3(=O)=O)c(F)c2C1 (stereo not shown) [Compound 242, 5-[8-fluoro-6-hydroxy-2-(3-hydroxybutyl)-1,2,3,4-tetrahydroisoquinolin-7-yl]-1λ^6,2,5-thiadiazolidine-1,1,3-trione] | 10 to 100 | 10 to 100 |
| O=C1CN(c2c(O)cc3c(c2F)CN(C(=O)NCC2CCOC2)CC3)S(=O)(=O)N1 (stereo not shown) [Compound 270, 8-fluoro-6-hydroxy-N-[(oxolan-3-yl)methyl]-7-(1,1,4-trioxo-1λ^6,2,5-thiadiazolidin-2-yl)-3,4-dihydroisoquinoline-2(1H)-carboxamide] | 10 to 100 | 10 to 100 |
| O=C1CN(c2c(O)cc3c(c2F)CC(CNCCCC2CC2)C3)S(=O)(=O)N1 (stereo not shown) [Compound 274, 5-(2-{[(3-cyclopropylpropyl)amino]methyl}-4-fluoro-6-hydroxy-2,3-dihydro-1H-inden-5-yl)-1λ^6,2,5-thiadiazolidine-1,1,3-trione] | 1 to 10 | 1 to 10 |
| CC(C)CNCC1Cc2cc(O)c(N3CC(=O)NS3(=O)=O)c(F)c2C1 (stereo not shown) [Compound 275, 5-(4-fluoro-6-hydroxy-2-{[(2-methylpropyl)amino]methyl}-2,3-dihydro-1H-inden-5-yl)-1λ^6,2,5-thiadiazolidine-1,1,3-trione] | 10 to 100 | 10 to 100 |
| Cc1noc(C)c1CNC1CCc2cc(O)c(N3CC(=O)NS3(=O)=O)c(F)c2C1 (stereo not shown) [Compound 287, 5-(7-{[(3,5-dimethyl-1,2-oxazol-4-yl)methyl]amino}-1-fluoro-3-hydroxy-5,6,7,8-tetrahydronaphthalen-2-yl)-1λ^6,2,5-thiadiazolidine-1,1,3-trione] | 10 to 100 | > 100 |
